Structures are written as SMILES. Values joined by “and” are separate entries in the source; they are usually repeats but may differ in a detail not shown here. Equal entries are not always repeated. A value given as a limit tells only on which side of the number the result lay.

This note sets out measurements from US6972287B1, “Method of inhibiting amyloid protein aggregation and imaging amyloid deposits” (Pfizer Inc., priority 1999, dated 2005).

The target in data set [1] is T1, Aβ (1-40) peptide (Homo sapiens, UniProt P05067).
T1 construct: 10 μL 0.5 mg/mL Aβ (1-40) peptide in 20% HFIP
T1 sequence (P05067 672-711 limits assumed): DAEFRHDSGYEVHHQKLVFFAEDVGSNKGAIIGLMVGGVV
The data set can be described thus: BAPA (Beta-Amyloid Peptide Aggregation, pH 6.0, filtration). The data set is classed as biochemical. The following applies: Aβ (1-40) 33 μM, pH 6.0, 2 to 4 hours at room temperature; replicate values; letter = synthetic lot. The essentials: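 Aggregation of human Aβ (1-40) peptide was measured in an endpoint filtration assay. The peptide was first reduced to monomer with hexafluoroisopropanol (HFIP), then used at 33 μM so it would aggregate at pH 6.0, and incubated for 2 to 4 hours at room temperature. Filter plates were washed with 100 μL phosphate buffer, impregnated with Meltilex, and counted on a Microbeta counter with background correction.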

The target of data set [2] is T2, Aβ (1-42) (Homo sapiens, UniProt P05067).
T2 construct: Required Aβ (1-42) (California Peptide) was dried from its hexafluoroisopropanol (HFIP) stock solution; purchased California Peptide
T2 sequence (P05067 672-713 limits assumed): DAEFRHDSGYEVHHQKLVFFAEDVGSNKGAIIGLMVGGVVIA
As to the kind of experiment: BATYM assay (Aβ (1-42) aggregation, Thioflavin T fluorescence). The data set is classed as biochemical. As to conditions: Aβ 1-42 final concentration 100 μM, 37° C., 1 day, letter = synthetic lot. In outline:
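Aβ (1-42) (100 μM final, PBS pH 7.4 from DMSO) incubated with compound at 37° C. for 1 day. Aggregation read by ThT (30 μM, glycine-NaOH pH 8.5) fluorescence, ex 440/em 485 nm; inhibition as fluorescence reduction corrected for compound-alone signal, IC50 by curve fitting from two experiments in triplicate.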

In data set [3] the target is T3, Aβ(1-40) (Homo sapiens, UniProt P05067).
T3 construct: […]; purchased Bachem, Torrance, Calif
T3 sequence (P05067 672-711 limits assumed): as the sequence (P05067 672-711 limits assumed) above
As to the kind of experiment: BASST (Beta-Amyloid Self-Seeding, Thioflavin T), inhibitors of self-seeded amyloid fibril growth. The data set is classed as biochemical. The following applies: 30 μM soluble Aβ(1-40), 37° C., 3 to 5 hours, thioflavin T fluorescence; replicate values; letter = synthetic lot; read-out: BASST (IC50 = μM). The essentials:
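Self-seeded Aβ(1-40) fibril growth was run in 50 mM sodium phosphate pH 7.5, 100 mM NaCl, 0.02% NaN3, 1 M urea. Compounds were tested in 3-fold serial dilutions (top 100 μM final): 10 min on ice, then 3–5 h at 37 °C. Fibrils were read by 5 μM thioflavin T fluorescence (ex 440/em 485 nm).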

The target of data set [4] is T3, Aβ(1-40). As to the kind of experiment: BASSR (Beta-Amyloid Self-Seeding Radioassay), inhibitors of self-seeded amyloid fibril growth. Format: biochemical. As to conditions: 30 μM soluble Aβ(1-40) + 125I-labeled Aβ(1-40), 37° C., 3 to 5 hours; replicate values; letter = synthetic lot; ppt = precipitate; V-shaped = inhibition followed by precipitation. The essentials: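 Self-seeded growth of ^125I-labeled Aβ(1-40) fibrils in 50 mM sodium phosphate pH 7.5, 100 mM NaCl, 0.02% NaN3, 1 M urea; compound (3-fold dilutions from 100 μM final) preincubated 10 min on ice, then 3–5 h at 37° C. Fibrils collected by vacuum filtration on 0.2 μm filters and counted for radioactivity.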

The IC50 is the point on the concentration scale where inhibition reaches its midpoint. Broadly, the melting point is the temperature, or range, at which the solid turns liquid. Consider `Cc1ccc(Nc2ccc(CCc3ccc(Cl)c(Cl)c3)cc2)c(C(=O)O)c1` [Example 75, 2-{4-[2-(3,4-Dichloro-phenyl)-ethyl]-phenylamino}-5-methyl-benzoic acid], for which the melting point is 153 to 160 °C. In data set [1], this compound yielded an IC50 of over 60 µM. The IC50 in data set [2] was determined as 46.2 µM. In addition, the IC50 in data set [3] amounted to 2.2 µM. Besides, the IC50 in data set [4] is over 100 µM.
The compound `O=C(O)c1cc([N+](=O)[O-])ccc1Nc1ccc(CCc2ccccc2Cl)cc1` [Example 76, 2-{4-[2-(2-Chloro-phenyl)-ethyl]-phenylamino}-5-nitrobenzoic acid] came in with a melting point of 236 to 238 °C. In addition, the 50% inhibitory concentration (IC50) in data set [1] was over 60 µM. In data set [2], the IC50 is 8.59 µM. In addition, the IC50 in data set [3] turned out to be 0.5 µM. The IC50 in data set [4] turned out to be 3 µM.
As for `O=C(O)c1c(Nc2ccc(CCc3ccc(Cl)c(Cl)c3)cc2)cccc1C(F)(F)F` [Example 78, 2-{4-[2-(3,4-Dichloro-phenyl)-ethyl]-phenylamino}-6-trifluoromethyl-benzoic acid], the melting point fell in the range of 130 to 132 °C. In addition, the IC50 in data set [1] turned out to be 8 µM. This compound had an IC50 in data set [2] of over 100 µM. Also, the IC50 in data set [3] came out at 0.1 µM. In addition, the half-maximal inhibitory concentration (IC50) in data set [4] is 70 µM.
`CN(C)c1ccc(Nc2ccc(CCc3ccc(Cl)c(Cl)c3)cc2)c(C(=O)O)c1` [Example 80, 2-{4-[2-(3,4-Dichloro-phenyl)-ethyl]-phenylamino}-5-dimethylamino-benzoic acid]: the melting point fell in the range of 75 to 80 °C. For the same compound, the IC50 in data set [1] was over 60 µM. In data set [2], the IC50 was 24.8 µM. In addition, the IC50 in data set [3] worked out at 4 µM. Besides, the IC50 in data set [4] was over 100 µM.
`O=C(O)c1ccccc1Nc1ccc(CCc2cc(Cl)cc(Cl)c2)cc1` [Example 81, 2-{4-[2-(3,5-Dichloro-phenyl)-ethyl]-phenylamino}-benzoic acid] had a melting point of 191 to 194 °C. Half-maximal inhibition in data set [1] (IC50) was put at 73 µM. The compound further registered a half-maximal inhibitory concentration (IC50) in data set [2] of 48.4 µM. The 50% inhibitory concentration (IC50) in data set [3] was 15 µM. The IC50 in data set [4] is over 100 µM.
`O=C(O)c1ccccc1Nc1ccc(CCc2ccc(F)c(F)c2)cc1` [Example 122, 2-{4-[2-(3,4-Difluoro-phenyl)-ethyl]-phenylamino}-benzoic acid] gave a melting point of 184 to 185 °C. Also, the IC50 in data set [1] is over 60 µM. Besides, the concentration for half-maximal inhibition (IC50) in data set [2] is over 100 µM. Moreover, in data set [3], the IC50 was found to be 2 µM. Further, the IC50 in data set [4] is over 100 µM.
For `COc1ccc(CCc2ccc(Nc3ccccc3C(=O)O)cc2)c(OC)c1` [Example 125, 2-{4-[2-(2,4-Dimethoxy-phenyl)-ethyl]-phenylamino}-benzoic acid], the melting point was in the range of 180 to 181 °C. For the same compound, in data set [1], the midpoint of inhibition, the IC50, lay at 80 µM. In addition, the concentration for half-maximal inhibition (IC50) in data set [2] was over 100 µM. Further, in data set [3], the IC50 turned out to be 10 µM. Also, the half-inhibitory concentration (IC50) in data set [4] is 82 µM.
As for `O=C(O)c1ccccc1Nc1ccc(CCc2ccccc2Cl)cc1` [Example 126, 2-{4-[2-(2-Chloro-phenyl)-ethyl]-phenylamino}-benzoic acid], the melting point lay in the range of 140 to 143 °C. For the same compound, the IC50 in data set [1] was 63 µM and > 60 µM. In addition, in data set [2], the IC50 is 84 µM and 73.9 µM. Also, in data set [3], the IC50 is 4 µM (2×) and 5 µM and 10 µM. Further, the IC50 in data set [4] is > 100 µM (2×) and 30 µM.
As for `O=C(O)c1ccccc1Nc1ccc(CCc2ccccc2O)cc1` [Example 127, 2-{4-[2-(2-Hydroxy-phenyl)-ethyl]-phenylamino}-benzoic acid], the melting point was in the range of 218 to 219 °C. This compound yielded an IC50 in data set [1] of 67 µM. The same compound returned an IC50 in data set [2] of over 100 µM. In addition, the IC50 in data set [3] is 10 µM. Moreover, the IC50 in data set [4] was over 100 µM.
The compound `O=C(O)c1cccc(Nc2ccc(CCc3ccc(Cl)c(Cl)c3)cc2)c1` [Example 131, 3-{4-[2-(3,4-Dichloro-phenyl)-ethyl]-phenylamino}-benzoic acid] came in with a melting point of 137 to 138 °C. The compound further gave a half-maximal inhibitory concentration (IC50) in data set [1] of over 60 µM. The compound further yielded an IC50 in data set [2] of 93.5 µM. Moreover, the IC50 in data set [3] turned out to be 10 µM. Moreover, the IC50 in data set [4] was over 100 µM.
The compound `COc1cc(CCc2ccc(Nc3ccccc3C(=O)O)cc2)cc(OC)c1OC` [Example 133, 2-{4-[2-(3,4,5-Trimethoxy-phenyl)-ethyl]-phenylamino}-benzoic acid] returned a melting point of 146 to 147 °C. In data set [1], this compound had an IC50 of over 60 µM. In addition, the concentration for half-maximal inhibition (IC50) in data set [2] is over 100 µM. Also, the IC50 in data set [3] is over 100 µM. For the same compound, the IC50 in data set [4] was over 100 µM.
With `O=C(O)c1ccccc1Nc1ccc(CCc2ccc(Oc3ccccc3)cc2)cc1` [Example 134, 2-{4-[2-(4-Phenoxy-phenyl)-ethyl]-phenylamino}-benzoic acid], the melting point fell in the range of 153 to 154 °C. In addition, in data set [1], the IC50 was over 60 µM. This compound also gave a concentration for half-maximal inhibition (IC50) in data set [2] of 36.5 µM. The IC50 in data set [3] came out at 2 µM. The IC50 in data set [4] is over 100 µM.
In turn, `O=C(O)c1ccccc1Nc1ccc(CCCCCc2ccc(Cl)c(Cl)c2)cc1` [Example 135, 2-{4-[5-(3,4-Dichloro-phenyl)-pentyl]-phenylamino}-benzoic acid] returned a melting point of 106 to 108 °C. This compound also returned an IC50 in data set [1] of over 60 µM. This compound also yielded an IC50 in data set [2] of 31.2 µM. In data set [3], the IC50 was found to be 1.2 µM. For the same compound, in data set [4], the IC50 was over 100 µM.
`O=C(O)c1ccc(Nc2ccc(CCc3ccc(Cl)c(Cl)c3)cc2)c(C(=O)O)c1` [Example 144, 4-{4-[2-(3,4-Dichloro-phenyl)-ethyl]-phenylamino}-isophthalic acid] showed a melting point of 264 to 266 °C. In data set [1], this compound returned an IC50 of 114 µM. The same compound registered an IC50 in data set [2] of over 100 µM. For the same compound, in data set [3], the IC50 is 40 µM. The IC50 in data set [4] was 15 µM and 25 µM.
For the compound `O=C(O)c1ccc(C(F)(F)F)cc1Nc1ccc(CCc2ccc(Cl)c(Cl)c2)cc1` [Example 145, 2-{4-[2-(3,4-Dichloro-phenyl)-ethyl]-phenylamino}-4-trifluoromethyl-benzoic acid], the melting point was in the range of 134 to 136 °C. Besides, the IC50 in data set [1] came to 9 µM. Besides, in data set [2], half-maximal inhibition (IC50) required 56.8 µM. Further, the 50% inhibitory concentration (IC50) in data set [3] came to 4 µM. The 50% inhibitory concentration (IC50) in data set [4] was 10 µM and 40 µM and 30 µM.
`CN(C)c1ccc(N(C)c2ccc(CCc3ccc(Cl)c(Cl)c3)cc2)c(C(=O)O)c1` [Example 147, 2-({4-[2-(3,4-Dichloro-phenyl)-ethyl]-phenyl}-methyl-amino)-5-dimethylamino-benzoic acid] came in with a melting point of 128 to 131 °C. The compound also came in with an IC50 in data set [1] of over 60 µM. In data set [2], this compound had an IC50 of 93.4 µM. The IC50 in data set [3] was 10 µM. Further, in data set [4], the IC50 is over 100 µM.
